From the NIST ThermoML archive (doi:10.1016/j.jct.2013.10.017)
Numbers after ± are expanded uncertainties.

Experiments:
[1] = activity coefficient (dimensionless); of the first substance listed, at infinite dilution; xn = mol fraction of the nth substance listed; conditions: 100 kPa, Liquid, Chromatography, x1 = 0
[2] = 101.33 kPa, Liquid, Vibrating tube method
[3] = refractive index (Na D-line) (dimensionless); conditions: 101.33 kPa, Liquid, Standard Abbe refractometry

Row | Structure (SMILES) | activity coefficient ([1]; 308.15 K) | activity coefficient ([1]; 313.15 K) | activity coefficient ([1]; 323.15 K) | activity coefficient ([1]; 333.15 K) | other results
1 | CCCCC [pentane] + CCn1cc[n+](C)c1.COCCOCCOS(=O)(=O)[O-] | 65.8 ± 4.5 | 65.6 ± 4 | 60.8 ± 2.9 | 59 ± 5.1 | –
2 | C=CCCCC [hex-1-ene] + CCn1cc[n+](C)c1.COCCOCCOS(=O)(=O)[O-] | 45.6 ± 2.4 | 44.7 ± 2.2 | 43.4 ± 4.1 | 40.3 ± 3.2 | –
3 | CCC(C)=O [butanone] + CCn1cc[n+](C)c1.COCCOCCOS(=O)(=O)[O-] | 2.33 ± 0.12 | 2.34 ± 0.13 | 2.37 ± 0.18 | 2.42 ± 0.21 | –
4 | C1CCCCCCC1 [cyclooctane] + CCn1cc[n+](C)c1.COCCOCCOS(=O)(=O)[O-] | 82.6 ± 3.7 | 79.8 ± 3.6 | 73.4 ± 4.3 | 68.2 ± 6.2 | –
5 | C1CCCCCC1 [cycloheptane] + CCn1cc[n+](C)c1.COCCOCCOS(=O)(=O)[O-] | 60.3 ± 2.9 | 58.7 ± 3.2 | 54.1 ± 3.8 | 50.6 ± 5 | –
6 | C=CCCC [1-pentene] + CCn1cc[n+](C)c1.COCCOCCOS(=O)(=O)[O-] | 26.1 ± 2.4 | 26.5 ± 1.5 | 26.3 ± 2 | 25.4 ± 2 | –
7 | C1CCCCC1 [cyclohexane] + CCn1cc[n+](C)c1.COCCOCCOS(=O)(=O)[O-] | 45.4 ± 2.1 | 45 ± 2.9 | 41.5 ± 3.2 | 38.8 ± 4.1 | –
8 | C1CCCC1 [cyclopentane] + CCn1cc[n+](C)c1.COCCOCCOS(=O)(=O)[O-] | 27.1 ± 1.3 | 26 ± 1.5 | 24.1 ± 2 | 22.8 ± 1.4 | –
9 | CCO [ethanol] + CCn1cc[n+](C)c1.COCCOCCOS(=O)(=O)[O-] | 0.719 ± 0.032 | 0.705 ± 0.033 | 0.664 ± 0.03 | 0.666 ± 0.029 | –
10 | Cc1ccccc1 [toluene] + CCn1cc[n+](C)c1.COCCOCCOS(=O)(=O)[O-] | 4.43 ± 0.21 | 4.45 ± 0.27 | 4.51 ± 0.33 | 4.62 ± 0.45 | –
11 | CCn1cc[n+](C)c1.COCCOCCOS(=O)(=O)[O-] [1-ethyl-3-methylimidazolium 2-(2-methoxyethoxy) ethylsulfate] | – | – | – | – | mass density ([2]; 308.2 K): 1230.4 ± 1.3 kg/m3; mass density ([2]; 313.2 K): 1226.21 ± 1.3 kg/m3; mass density ([2]; 323.2 K): 1219.6 ± 1.3 kg/m3; mass density ([2]; 333.2 K): 1213.66 ± 1.3 kg/m3; refractive index ([3]; 308.2 K): 1.47929 ± 0.00051; refractive index ([3]; 313.2 K): 1.47565 ± 0.00051; refractive index ([3]; 323.2 K): 1.47281 ± 0.00051; refractive index ([3]; 333.2 K): 1.46995 ± 0.00051
12 | CCc1ccccc1 [ethylbenzene] + CCn1cc[n+](C)c1.COCCOCCOS(=O)(=O)[O-] | 8.04 ± 0.38 | 8.04 ± 0.47 | 8.06 ± 0.61 | 8.17 ± 0.74 | –
13 | CC(C)=O [acetone] + CCn1cc[n+](C)c1.COCCOCCOS(=O)(=O)[O-] | 1.42 ± 0.07 | 1.46 ± 0.07 | 1.47 ± 0.11 | 1.51 ± 0.13 | –
14 | c1ccccc1 [benzene] + CCn1cc[n+](C)c1.COCCOCCOS(=O)(=O)[O-] | 2.31 ± 0.12 | 2.33 ± 0.15 | 2.41 ± 0.18 | 2.48 ± 0.22 | –
15 | CO [methanol] + CCn1cc[n+](C)c1.COCCOCCOS(=O)(=O)[O-] | 0.39 ± 0.027 | 0.392 ± 0.027 | 0.374 ± 0.031 | 0.369 ± 0.027 | –
16 | CC1CCCCC1 [methylcyclohexane] + CCn1cc[n+](C)c1.COCCOCCOS(=O)(=O)[O-] | 71.9 ± 3.2 | 70.6 ± 3.3 | 65.8 ± 4.1 | 62.3 ± 5.7 | –
17 | CCCO [propan-1-ol] + CCn1cc[n+](C)c1.COCCOCCOS(=O)(=O)[O-] | 1.01 ± 0.05 | 0.989 ± 0.056 | 0.942 ± 0.055 | 0.913 ± 0.063 | –

Continued, in another order:

Row | activity coefficient ([1]; 308.15 K) | activity coefficient ([1]; 313.15 K) | activity coefficient ([1]; 323.15 K) | activity coefficient ([1]; 333.15 K) | Structure (SMILES) | other results
18 | 168 ± 7.6 | 168 ± 9.1 | 160 ± 7.1 | 149 ± 8.9 | C=CCCCCCCC [1-nonene] + CCn1cc[n+](C)c1.COCCOCCOS(=O)(=O)[O-] | –
19 | 23.9 ± 1.1 | 24.7 ± 1.1 | 25.7 ± 1.9 | 26.4 ± 2.4 | C#CCCCCCCC [1-nonyne] + CCn1cc[n+](C)c1.COCCOCCOS(=O)(=O)[O-] | –
20 | 6.05 ± 0.32 | 6.22 ± 0.38 | 6.49 ± 0.56 | 6.73 ± 0.65 | C#CCCCC [1-hexyne] + CCn1cc[n+](C)c1.COCCOCCOS(=O)(=O)[O-] | –
21 | 9.61 ± 0.48 | 9.76 ± 0.56 | 10.1 ± 0.83 | 10.3 ± 1 | C#CCCCCC [1-heptyne] + CCn1cc[n+](C)c1.COCCOCCOS(=O)(=O)[O-] | –
22 | 71.3 ± 4.7 | 71.7 ± 3.2 | 68.6 ± 4.8 | 65.6 ± 6.1 | C=CCCCCC [1-heptene] + CCn1cc[n+](C)c1.COCCOCCOS(=O)(=O)[O-] | –
23 | 16.4 ± 0.7 | 16.7 ± 0.9 | 17.1 ± 1.3 | 17.4 ± 1.7 | C#CCCCCCC [1-octyne] + CCn1cc[n+](C)c1.COCCOCCOS(=O)(=O)[O-] | –
24 | 215 ± 9.9 | 216 ± 9.9 | 212 ± 10 | 202 ± 10 | CCCCCCCC [octane] + CCn1cc[n+](C)c1.COCCOCCOS(=O)(=O)[O-] | –
25 | 3.62 ± 0.19 | 3.74 ± 0.25 | 3.98 ± 0.4 | 4.13 ± 0.4 | C#CCCC [1-pentyne] + CCn1cc[n+](C)c1.COCCOCCOS(=O)(=O)[O-] | –
26 | 158 ± 7.1 | 158 ± 8 | 147 ± 6.8 | 139 ± 6.2 | CCCCCCC [heptane] + CCn1cc[n+](C)c1.COCCOCCOS(=O)(=O)[O-] | –
27 | 114 ± 5.6 | 113 ± 6.1 | 107 ± 5.6 | 101 ± 8 | C=CCCCCCC [oct-1-ene] + CCn1cc[n+](C)c1.COCCOCCOS(=O)(=O)[O-] | –
28 | 292 ± 16 | 303 ± 14 | 288 ± 20 | 281 ± 13 | CCCCCCCCC [nonane] + CCn1cc[n+](C)c1.COCCOCCOS(=O)(=O)[O-] | –
29 | 103 ± 4.9 | 102 ± 4.9 | 94 ± 5.2 | 85.7 ± 7.4 | CCCCCC [hexane] + CCn1cc[n+](C)c1.COCCOCCOS(=O)(=O)[O-] | –
